The record followed here is patent US8022225B2, “Triazole derivative” (Taisho Pharmaceutical Co., Ltd, priority 2004, dated 2011).

Each structure is given as a SMILES string.

The target in test [1] is T1, human Edg-1(S1P1) (Homo sapiens, UniProt P21453).
T1 construct: expressed in transfected cells; host or cells: HEK-293
Briefly: Cell system binding test: inhibition of [3H]-S1P binding to Edg-1(S1P1) gene transferred HEK-293 cells. The conditions noted are these: [3H]-S1P 10 nM. Here is the method:
Cells (1×10^5 cells/well) obtained as described above were seeded in poly-L-lysine-coated 96-well plates (Corning Incorporated), and then incubated in a 5% carbon dioxide gas incubator for 12 hours at 37° C. with the use of an MEM medium (Invitrogen Corporation) containing 100 U/mL of penicillin, 100 μg/mL of streptomycin, a 1% MEM nonessential amino acid solution, and 10% FCS. […] After the cells were washed twice with the buffer, they were solubilized with 100 μL of Opti Phase Supermix (produced by Perkin-Elmer), and measured for radioactivity by means of Micro Beta (produced by Perkin-Elmer).
Inhibition rate(%)=[1−(A−C)/(B−C)]×100

Test [2] deals with T1, human Edg-1(S1P1). Briefly: Membrane system binding test: inhibition of [33P]-S1P binding to the membrane fraction of Edg-1(S1P1) gene transferred HEK-293 cells. The conditions noted are these: [33P]-S1P 0.1 nM. The protocol:
The membrane fraction was obtained by treating the cells with a solubilizing buffer (1 mM Tris/HCl, pH 7.2) for 10 minutes on ice, centrifuging the system (1000×g, 5 min) to remove insoluble fractions, and then centrifuging the system (40000×g, 30 min, 4° C.). The resulting membrane fraction was dissolved in a binding buffer (20 mM Tris-HCl, pH 7.4, 100 mM NaCl, 15 mM NaF, 2 mM deoxypyridoxine, 4 mg/mL fatty acid-free BSA), and then [^33P]-S1P (produced by ARC, end concentration 0.1 nM) and a DMSO solution of the test compound (end concentration of the compound: 10^−5 M, end concentration of DMSO: 0.1%) were added, followed by stirring the mixture and subsequently treating it for 1 hour at 30° C. Using a harvester, the membrane fraction was harvested onto unifilter-96GF/C filter (produced by Perkin-Elmer). Then, the filter with the membrane fraction was washed 4 times with the binding buffer, and the filter was dried. To the filter, 25 μL Microscint 0 (produced by Perkin-Elmer) was added, and the assay system was measured for radioactivity by means of Top Count NXT (Packard). Based on the radioactivity, the amount (A) of binding of [^33P]-S1P to the membrane fraction upon addition of the compound was calculated.
The same procedure was performed in the absence of the test compound, and the amount (B) of binding of [^33P]-S1P was calculated. Moreover, the same procedure was performed in the absence of the test compound with the use of HEK-293 cells, to which the Edg-1(S1P1) gene had not been transferred, and the background amount (C) of binding of [^33P]-S1P was calculated.
The Edg-1(S1P1) binding inhibition rate of the compound, calculated from the following equation, is shown in […]

Setting [3] is: 10 μM compound, read-out: Cell system binding test % inhibition (10 μM).
Setting [4] is: 10 μM compound, membrane fraction of Edg-1(S1P1) gene transferred HEK-293 cells, read-out: Membrane system binding test % inhibition (10 μM).
[5] abbreviates: test compound 10^-5 M, 1 hour, read-out: Edg-1(S1P1) binding inhibition rate (cell system binding test).
Where [6] appears, read: test compound 10^-5 M, 1 hour at 30° C., HEK-293 membrane fraction, read-out: Edg-1(S1P1) binding inhibition rate (membrane system binding test).

T1 sequence (P21453 whole entry): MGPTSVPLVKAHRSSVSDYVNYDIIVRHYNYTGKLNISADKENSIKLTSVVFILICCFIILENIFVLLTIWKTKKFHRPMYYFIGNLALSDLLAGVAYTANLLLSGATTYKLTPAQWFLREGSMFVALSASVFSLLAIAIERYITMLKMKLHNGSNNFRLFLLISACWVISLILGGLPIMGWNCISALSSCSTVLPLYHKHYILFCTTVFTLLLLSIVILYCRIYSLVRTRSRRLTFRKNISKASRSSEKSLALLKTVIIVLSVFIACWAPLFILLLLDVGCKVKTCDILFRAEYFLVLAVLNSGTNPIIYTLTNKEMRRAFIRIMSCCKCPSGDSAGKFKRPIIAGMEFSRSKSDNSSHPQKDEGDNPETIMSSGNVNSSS

Turning to `CCCOc1nnc([C@@H](C)NS(=O)(=O)c2ccc(C)cc2)n1CC` [Compound 196], the inhibition (as a rule, the relative decrease from the control value, in per cent) at 10 µM stood at 106% in test [1] (setting [3]) and 88.5% in test [2] (setting [4]).
Turning to `CCn1c(OCC(F)(F)F)nnc1[C@@H](C)NS(=O)(=O)c1ccc(Br)c(C)c1` [Compound 489], the inhibition at 10 µM in test [1] (setting [5]) is 103%; in test [2] (setting [6]), 98.4%.
The like results for `CCn1c(OCC(F)(F)F)nnc1[C@@H](C)NS(=O)(=O)c1ccc(Br)s1` [Compound 484] were, in that order, 102% and 63.2%.
With `CCn1c(OC)nnc1[C@@H](C)NS(C)(=O)=O` [Compound 227], the inhibition at 10 µM was 92.6% in test [1] (setting [3]) and 52% in test [2] (setting [4]).
For `CCn1c(SCc2ccc(-c3ccccc3)cc2)nnc1[C@@H](C)NS(=O)(=O)c1ccc(Cl)cc1` [Compound 6] the same measures were 94.3% and 99%.
Consider `CCn1c(OC)nnc1[C@@H](C)NS(=O)(=O)c1cccs1` [Compound 242], for which the inhibition at 10 µM in test [1] (setting [3]) came to 100%; in test [2] (setting [4]) it was 49.9%.
For `C=CCSc1nnc(C(C)NS(=O)(=O)c2ccc(Cl)cc2)n1C` (centres unmarked) [Compound 91] the same measures were 72.9% and 47.4%.
For `CCn1c(OC)nnc1[C@@H](C)NS(=O)(=O)c1ccc(C#N)cc1` [Compound 277] the same measures were 99.7% and 51.4%.
For `CCn1c(OC)nnc1[C@@H](C)NS(=O)(=O)c1ccc(Br)s1` [Compound 208] the same measures were 99.9% and 93%.
As to `CCOc1nnc([C@@H](C)NS(=O)(=O)c2cccc(Cl)c2)n1CC` [Compound 445], the inhibition at 10 µM in test [1] (setting [3]) was 93%; in test [2] (setting [4]), 81.6%.
Take `CCn1c(OC(C)C)nnc1[C@@H](C)NS(=O)(=O)c1ccc(I)cc1` [Compound 476]: the inhibition at 10 µM in test [1] (setting [5]) is 100%; in test [2] (setting [6]) it was 86.1%.
For `CCn1c(OC(C)C)nnc1[C@@H](C)NS(=O)(=O)c1ccc(F)c(F)c1` [Compound 465] the same measures were 97.9% and 88%.
In the case of `CCn1c(OC2CCOC2)nnc1[C@@H](C)NS(=O)(=O)c1ccc(Cl)cc1` (some centres unmarked) [Compound 392], the inhibition at 10 µM was 95.6% in test [1] (setting [3]) and 85.1% in test [2] (setting [4]).
For `CCn1c(SCc2cccc3ccccc23)nnc1[C@@H](C)NS(=O)(=O)c1ccc(Cl)cc1` [Compound 48] the same measures were 93% and 101%.
For `CCn1c(OC)nnc1[C@H](C)NS(=O)(=O)c1cccc(Cl)c1` [Compound 193] the same measures were 108% and 64.4%.
As to `CCn1c(OCC(F)(F)F)nnc1[C@@H](C)NS(=O)(=O)c1cccc(Cl)c1` [Compound 514], the inhibition at 10 µM in test [1] (setting [5]) was determined as 98.4%; in test [2] (setting [6]), 86.7%.
Consider `CCOc1nnc([C@@H](C)NS(=O)(=O)c2cccc(OC(F)F)c2)n1CC` [Compound 416], for which the inhibition at 10 µM is 100% in test [1] (setting [3]) and 77.7% in test [2] (setting [4]).
As to `CCn1c(OC)nnc1[C@@H](C)NS(=O)(=O)c1cc(Cl)cc(Cl)c1O` [Compound 216], the inhibition at 10 µM in test [1] (setting [3]) was 97.2%; in test [2] (setting [4]) it was 63.7%.
For the compound `CCn1c(OCC(F)(F)F)nnc1[C@@H](C)NS(=O)(=O)c1ccc(C)c(F)c1` [Compound 494], the inhibition at 10 µM turned out to be 102% in test [1] (setting [5]) and 87.1% in test [2] (setting [6]).
In the case of `C=CCCCOc1nnc([C@@H](C)NS(=O)(=O)c2ccc(Cl)cc2)n1CC` [Compound 384], the inhibition at 10 µM in test [1] (setting [3]) was 104%; in test [2] (setting [4]) it was 93.5%.
For `CCSc1nnc([C@@H](C)NS(=O)(=O)c2ccc(Cl)cc2)n1CC` [Compound 53] the same measures were 90.8% and 89.3%.
The like results for `CCOc1nnc([C@@H](C)NS(=O)(=O)c2ccc3nsnc3c2)n1CC` [Compound 431] were, in that order, 98% and 94.6%.
For `CCn1c(SCCc2ccccc2)nnc1[C@@H](C)NS(=O)(=O)c1ccc(Cl)cc1` [Compound 61] the same measures were 95% and 98.9%.
Turning to `CCn1c(OC)nnc1[C@@H](C)NS(=O)(=O)c1ccc(Br)c(C)c1` [Compound 314], the results for the inhibition at 10 µM in test [1] (setting [3]) and in test [2] (setting [4]) were 102% and 100%, respectively.
Take `Cn1c(SCc2ccc(Cl)c(Cl)c2)nnc1C(Cc1ccccc1)NS(=O)(=O)c1ccc(Cl)cc1` (centres unmarked) [Compound 137]: the results for the inhibition at 10 µM in test [1] (setting [3]) and in test [2] (setting [4]) were 99% and 57.1%, respectively.
For the compound `CCn1c(OC(C)C)nnc1[C@@H](C)NS(=O)(=O)c1ccc(Br)c(C(F)(F)F)c1` [Compound 478], the results for the inhibition at 10 µM in test [1] (setting [5]) and in test [2] (setting [6]) were 104% and 86%, respectively.
As to `C=C(C)CSc1nnc(C(Cc2ccccc2)NS(=O)(=O)c2ccc(Cl)cc2)n1C` (centres unmarked) [Compound 136], the inhibition at 10 µM in test [1] (setting [3]) is 103%; in test [2] (setting [4]) it was 94.7%.
The like results for `CCn1c(OC)nnc1[C@@H](C)NS(=O)(=O)c1cccc(C)c1` [Compound 248] were, in that order, 99.5% and 83.3%.
Turning to `CCn1c(OC(C)C)nnc1[C@@H](C)NS(=O)(=O)c1ccc(Br)c(Br)c1` [Compound 467], the values for the inhibition at 10 µM in test [1] (setting [5]) and in test [2] (setting [6]) were 100% and 98.6%, respectively.
As for `CCn1c(SCc2ccccc2)nnc1[C@@H](C)NS(=O)(=O)c1ccc(Cl)cc1` [Compound 5, N-{(1R)-1-[5-(benzylthio)-4-ethyl-4H-1,2,4-triazol-3-yl]ethyl}-4-chloro-benzenesulfonamide], the inhibition at 10 µM in test [1] (setting [3]) amounted to 97.2%; in test [2] (setting [4]), 81.2%.
As for `CCn1c(OC(C)C)nnc1[C@@H](C)NS(=O)(=O)c1cccc(Cl)c1C` [Compound 471], the inhibition at 10 µM is 96.5% in test [1] (setting [5]) and 91% in test [2] (setting [6]).
For `CCOc1nnc([C@@H](C)NS(=O)(=O)c2ccc(C)cc2)n1CC` [Compound 429], the figures for the inhibition at 10 µM in test [1] (setting [3]) and in test [2] (setting [4]) were 95.1% and 74.2%, respectively.
As for `CCn1c(SCCS(=O)(=O)c2ccccc2)nnc1[C@@H](C)NS(=O)(=O)c1ccc(Cl)cc1` [Compound 80], the inhibition at 10 µM in test [1] (setting [3]) came to 86.2%; in test [2] (setting [4]), 87.5%.
`CCn1c(OCC(F)(F)F)nnc1[C@@H](C)NS(=O)(=O)c1ccc(Br)cc1` [Compound 492]: the inhibition at 10 µM in test [1] (setting [5]) was 104%; in test [2] (setting [6]), 87.9%.
Turning to `CCn1c(OC)nnc1[C@@H](C)NS(=O)(=O)c1cccc(OC(F)F)c1` [Compound 310], the figures for the inhibition at 10 µM in test [1] (setting [3]) and in test [2] (setting [4]) were 98.5% and 78.8%, respectively.
With `CCOc1nnc([C@@H](C)NS(=O)(=O)c2ccc(C)c(C)c2)n1CC` [Compound 410], the values for the inhibition at 10 µM in test [1] (setting [3]) and in test [2] (setting [4]) were 96.4% and 86.1%, respectively.
For `CCn1c(OCCCOC)nnc1[C@@H](C)NS(=O)(=O)c1ccc(Cl)cc1` [Compound 398] the same measures were 85.8% and 93.5%.
The like results for `C/C=C/CSc1nnc([C@@H](C)NS(=O)(=O)c2ccc(Cl)cc2)n1CC` [Compound 21] were, in that order, 82.2% and 74.8%.
For `CCn1c(OC)nnc1[C@@H](C)NS(=O)(=O)c1ccc2nsnc2c1` [Compound 341] the same measures were 99.4% and 99.4%.
For `CCn1c(OC)nnc1[C@@H](C)NS(=O)(=O)c1ccc2c(c1)OCCCO2` [Compound 343], the results for the inhibition at 10 µM in test [1] (setting [3]) and in test [2] (setting [4]) were 98.9% and 41.4%, respectively.
For `CCn1c(OC)nnc1[C@@H](C)NS(=O)(=O)c1ccc(OC)c(OC)c1` [Compound 221] the same measures were 89.9% and 56.1%.
The like results for `CCOc1nnc([C@@H](C)NS(=O)(=O)c2ccc(C)c(Cl)c2)n1CC` [Compound 404] were, in that order, 91.2% and 90%.
Regarding `CCn1c(SC2CCC2)nnc1[C@@H](C)NS(=O)(=O)c1ccc(Cl)cc1` [Compound 55], the inhibition at 10 µM in test [1] (setting [3]) turned out to be 94.3%; in test [2] (setting [4]) it was 104%.
